Laboratory results published in paper PMC10349806 (Nature Communications, 2023).
Several values for one entry are separate records, joined by “and”; a condition that tells them apart may be missing. Identical values can stand only once.

Biological target: T1, PfCRT variant D410A (Plasmodium falciparum, UniProt Q9N623, A220S/D410A/I356T/K76T/M74I/N326S/N75E/Q271E/R371I)
T1 sequence (Q9N623 1-424 M74I/N75E/K76T/A220S/Q271E/N326S/I356T/R371I/D410A): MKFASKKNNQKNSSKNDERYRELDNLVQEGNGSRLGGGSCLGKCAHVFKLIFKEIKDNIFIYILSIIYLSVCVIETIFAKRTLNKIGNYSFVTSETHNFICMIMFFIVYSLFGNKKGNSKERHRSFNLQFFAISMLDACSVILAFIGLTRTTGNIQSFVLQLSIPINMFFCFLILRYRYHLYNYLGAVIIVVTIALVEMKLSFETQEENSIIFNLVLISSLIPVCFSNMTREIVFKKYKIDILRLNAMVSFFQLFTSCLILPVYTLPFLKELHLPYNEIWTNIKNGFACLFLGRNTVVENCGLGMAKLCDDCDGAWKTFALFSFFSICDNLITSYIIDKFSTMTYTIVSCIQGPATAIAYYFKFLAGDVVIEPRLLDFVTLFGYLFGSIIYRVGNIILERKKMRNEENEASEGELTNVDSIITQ
Assay: CQ uptake assay, oocytes expressing D410A
Format: cell-based
Description: Site-directed mutagenesis of PfCRT^Dd2 was performed as described using the megaprimer method with overlap extension[21],[54]. The primer pairs used are listed in Supplementary Table 6. Please note that a codon-optimized and oocyte-adapted version of PfCRT^Dd2 was used[22] (Supplementary Fig. 16). The resulting DNA fragment was cloned into the SP64T expression vector and verified by sequencing.
Oocytes were obtained as described previously. Briefly, adult (>2 years old) female X. laevis frogs (NASCO) were anesthetized in a cooled solution of ethyl 3-amino benzoate methanesulfonate (0.1%, w/v), followed by a surgical removal of parts of the ovary. The ovary lobes were carefully dissected and small pieces of oocytes were incubated in Ca^2+-free ND96 buffer (96 mM NaCl, 2 mM KCl, 1 mM MgCl2 buffered with 5 mM HEPES/NaOH, pH 7.5) supplemented with collagenase D (0.1%, w/v; Roche), BSA (0.5%, w/v), and 9 mm Na2HPO4 at 18 °C for 14-16 h while gentle shaking. After incubation, the oocytes were carefully washed several times with ND96 buffer (96 mM NaCl, 2 mM KCl, 1.8 mM CaCl2, 1 mM MgCl2 buffered with 5 mM HEPES/NaOH, pH 7.5) supplemented with 100 mg l^−1 gentamycin). Defolliculated and healthy-looking stage V-VI oocytes were manually selected for RNA microinjection. The RNA was generated as following: The codon-optimized sequences of PfCRT variants were cloned into the pSP64T expression vector. After vector linearization using the restriction endonucleases BamHI or SalI (New England Biolabs), transcription was performed using the in vitro SP6 mMessage mMachine Kit (Ambion)[34]. The obtained RNA was kept at −80 °C and diluted with nuclease-free water to a concentration of 0.6 μg μl^−1. Precision-bore glass capillary tubes (3.5-inch glass capillaries; Drummond Scientific Co.) were pulled on a vertical puller (P-87 Flaming/Brown micropipette puller, Sutter Instrument Co.), graduated, and placed on a microinjector (Nanoject II Auto-Nanoliter Injector, Drummond Scientific Co.). 50 nl of nuclease-free water alone (control oocytes) or 50 nl of 0.6 μg μl^−1 RNA were injected under stereomicroscopic control. Injected oocytes were incubated for 46–72 h at 18 °C with twice-daily buffer changes before usage in experiments.
Drug uptake assays were performed as described previously[21],[22],[24],[34]. […] The direction of radio-labeled drug transport is here from the mostly acidic extracellular solution (pH 4.5 or 6.0, as indicated) into the oocyte cytosol (pH ∼ 7.2), which corresponds to the efflux of drug from the acidic digestive vacuole (pH 5.2) into the parasite cytoplasm (pH 7.2). The topology of PfCRT in the oolemma is such that both the N- and C-terminus face the extracellular milieu[3],[22]. In the parasite, the N- and C-terminus face the lumen of the digestive vacuole. CQ uptake kinetics were performed by incubating oocytes in ND96 buffer adjusted to a pH of 4.5, 5.0, 5.5, or 6.0 and supplemented with 50 nM [^3H]CQ and one of 7 different CQ concentrations (10 µM, 50 µM, 100 µM, 200 µM, 300 µM, 400 µM, 500 µM CQ). The reaction was stopped at the 60 min time point, which is in the linear uptake range[22],[34] (Supplementary Fig. 17). For determination of the amount of drug uptake for each oocyte, the reaction medium was removed and the oocytes were washed three times with 2 ml of ice-cold ND96 buffer. Each oocyte was individually transferred to a scintillation vial containing 5% sodium dodecyl sulfate (200 μl) for lysis. The radioactivity of each sample was measured using a liquid scintillation analyzer Tri-Carb 4910 TR (PerkinElmer). Oocytes that were injected with water instead of RNA were analyzed in parallel, representing the uptake of a drug by diffusion and/or endogenous permeation pathways. The resulting value represents the “background“ level of drug accumulation in oocytes (in-depth discussion in[22]). […]

[1] = D410A, 50 µM CQ, 1 h, mean ± SEM

CCN(CC)CCCC(C)Nc1ccnc2cc(Cl)ccc12 (stereo not drawn) [CQ, chloroquine]
Activity at pH 4.5 [1]: 2.38 ± 0.18 pmol h-1 oocyte-1
Activity at pH 6.0 [1]: 5.09 ± 0.24 pmol h-1 oocyte-1
R-value (D410A, CQ transport at pH 4.5 / pH 6.0): 0.47 ± 0.06
D410A transport activity pH 4.5 (pH 4.5, single replicates, Fig 1d left): 2.74 pmol oocyte-1 h-1 and 1.99 pmol oocyte-1 h-1 and 2.40 pmol oocyte-1 h-1
D410A R-value (pH 4.5 vs pH 6.0, Fig 1d left): 0.60 and 0.35 and 0.47
D410A transport activity pH 6.0 (pH 6.0, single replicates, Fig 1d left): 4.58 pmol oocyte-1 h-1 and 5.61 pmol oocyte-1 h-1 and 5.09 pmol oocyte-1 h-1
